Laboratory results from PubChem BioAssay (NCI).
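These data come from cells grown in 96-well plates and exposed to compound for 48 hours at five concentrations. The concentration for 50% growth inhibition is given as GI50. Definition used: TGI = concentration required for complete inhibition of growth.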

Experiments:
Experiment in all cases: inhibition of tumour cell growth, NCI panel, 48 h
[1] = system: HT29 colon
[2] = system: RXF 393 renal
[3] = system: A549 NSCLC
[4] = system: SK-MEL-28 melanoma
[5] = system: HCT-15 colon
[6] = system: 786-0 renal
[7] = system: KM12 colon
[8] = system: U251 CNS
[9] = system: SK-OV-3 ovarian
[10] = system: A498 renal

| Compound | GI50 [1] [µM] | TGI [1] [µM] | GI50 [2] [µM] | TGI [2] [µM] | GI50 [3] [µM] | TGI [3] [µM] | GI50 [4] [µM] | TGI [4] [µM] | GI50 [5] [µM] | TGI [5] [µM] | GI50 [6] [µM] | TGI [6] [µM] | GI50 [7] [µM] | TGI [7] [µM] | GI50 [8] [µM] | TGI [8] [µM] | GI50 [9] [µM] | TGI [9] [µM] | TGI [10] [µM] | GI50 [10] [µM] |
| --- | --- | --- | --- | --- | --- | --- | --- | --- | --- | --- | --- | --- | --- | --- | --- | --- | --- | --- | --- | --- |
| CNC(=O)n1ccc2cc(Oc3ccnc(NC(=O)c4ccc(C5CCN(CCO)CC5)cc4)c3)c(OCCOC)cc21 | 0.801 | 11.1 | 1.34 | 3.09 | 5.27 | 21.4 | 6.33 | 19.2 | 4.42 | 15.6 | 1.94 | 4.38 | 10.4 | 24.5 | 3.15 | 12.3 | 10.5 | 23.1 | – | – |
| CCCCCCCCCc1cc(=O)c2ccc(OCc3ccccc3)cc2o1 | – | > 100 | – | > 100 | – | > 100 | – | > 100 | – | > 100 | – | > 100 | – | > 100 | – | > 100 | – | > 100 | – | – |
| COc1ccccc1NC(=O)C1=C(C)NC(C)=C(C(=O)Nc2ccccc2OC)C1c1ccccc1F | – | > 100 | – | – | – | > 100 | – | > 100 | – | > 100 | – | > 100 | – | > 100 | – | > 100 | – | > 100 | > 100 | – |
| C=CCC1([C@H](C)[C@@H](OC(C)=O)c2cc(OC)c(OC)c(OC)c2)C[C@@H](OC)CCC1=O (stereo partly drawn) | – | 38 | – | 26.6 | – | 77.5 | – | 52.4 | – | 40.8 | – | 26.7 | – | 37 | – | 26.7 | – | > 100 | – | – |
| COc1ccc2nc3cc([N+](=O)[O-])ccc3c(NCCCCCN(C)C)c2c1 | 0.0643 | 0.38 | – | – | 0.25 | 1.15 | 0.283 | 1.18 | 1.31 | – | 0.15 | 1.07 | 0.207 | 0.618 | 0.218 | 2.64 | 0.351 | 2.36 | 2.98 | 1.07 |
| CCCN=Cc1cc(Cc2ccc(O)c(C=NCCC)c2)ccc1O | – | 27.6 | – | 37.7 | – | 32.3 | – | – | – | 12.3 | – | 32.1 | – | 22 | – | 9.22 | – | 82.4 | 8.97 | – |
| COc1cc(/C=C2\C(=O)N(C(=O)Cc3ccccc3)N=C2C)ccc1O | – | – | – | – | – | > 100 | – | > 100 | – | > 100 | – | > 100 | – | > 100 | – | – | – | – | – | – |
| Nc1ccn(Cc2ccc(C34CC5CC(CC(C5)C3)C4)c(O)c2)c(=O)n1 | > 100 | > 100 | – | – | – | – | > 100 | > 100 | > 100 | > 100 | 47.7 | > 100 | > 100 | > 100 | 23.6 | > 100 | > 100 | > 100 | > 100 | 59.4 |
| Cc1sc(C(=O)Nc2cc(C(=O)NCCCN(C)C)n(C)c2)cc1NC(=O)CCCN1C(=O)c2cccc3cccc(c23)C1=O | > 100 | > 100 | – | – | > 100 | > 100 | > 100 | > 100 | > 100 | > 100 | > 100 | > 100 | > 100 | > 100 | > 100 | > 100 | > 100 | > 100 | > 100 | > 100 |
| O=C(O)c1ccc([Se][Se]c2ccc(C(=O)O)cc2)cc1 | – | – | – | 52.9 | – | > 100 | – | 55.6 | – | > 100 | – | > 100 | – | 68.4 | – | 49.6 | – | – | – | – |
| C[N+](C)(C)CC(=O)N/N=C(/Cc1nc2c3c(ccc2[nH]c1=O)C(=O)c1ccccc1C3=O)C(=O)Nc1ccc(Cl)c(Cl)c1 | – | > 100 | – | > 100 | – | > 100 | – | > 100 | – | – | – | > 100 | – | > 100 | – | – | – | > 100 | > 100 | – |
| Cc1ccncc1.[O]=[Ge].[O]=[Ge].[O]=[Ge].[O]=[Ge].[O]=[Ge].[O]=[Ge][OH].[O]=[Ge][OH] | > 100 | > 100 | > 100 | > 100 | > 100 | > 100 | > 100 | > 100 | > 100 | > 100 | > 100 | > 100 | > 100 | > 100 | – | – | – | – | > 100 | > 100 |
| COc1ccc2c(c1)C(O)(C(F)(F)F)c1cc(C(=O)C(F)(F)F)c3ccccc3c1N2 (stereo not drawn) | – | 20.3 | – | 23.8 | – | 28.3 | – | 27.7 | – | 21 | – | 26.3 | – | 15.6 | – | – | – | 31.6 | 27.4 | – |
| CC(C)(C)OC(=O)C#CC[C@H]1CCCC1/C=C/C(O)=C1/C(=O)NC(CCCNC(=O)OC(C)(C)C)C1=O (stereo partly drawn) | – | > 100 | – | 30 | – | > 100 | – | 36.1 | – | – | – | > 100 | – | > 100 | – | 74.8 | – | > 100 | > 100 | – |
| Nc1cc2cccc[n+]2c2cc(Cl)ccc12 | 37.4 | – | 87.9 | – | 56.3 | – | 14.9 | 37.3 | – | – | 8.16 | – | 7.89 | 53.2 | 4.56 | 25.4 | – | – | – | – |
| CC1(C)SC2C(NC(=O)C(N)c3ccccc3)C(=O)N2C1C(=O)O (stereo not drawn) | – | > 100 | – | – | – | > 100 | – | > 100 | – | > 100 | – | > 100 | – | > 100 | – | > 100 | – | – | – | – |
| Cc1cccc(NC(=O)CC(=O)N2N=C(N(CCC#N)c3ccc(Cl)cc3)CC2c2ccccc2)c1 (stereo not drawn) | – | > 100 | – | > 100 | – | > 100 | – | > 100 | – | – | – | > 100 | – | > 100 | – | > 100 | – | – | – | – |
| CC1=NCCc2c1[nH]c1cc(O)ccc21 | – | > 100 | – | > 100 | – | > 100 | – | > 100 | – | > 100 | – | > 100 | – | > 100 | – | – | – | > 100 | > 100 | – |
| COC(=O)[C@@H](C)C[C@H](Cc1ccccc1)NC(=O)c1nc([C@@H](C[C@H](C(C)C)N(C)C(=O)[C@@H](NC(=O)[C@H]2CCCCN2C)C(C)C)OC(C)=O)sc1C | < 0.00167 | 0.088 | < 0.00167 | > 16.7 | 0.00734 | > 16.7 | – | – | 0.00536 | > 16.7 | < 0.00167 | > 16.7 | < 0.00167 | > 16.7 | < 0.00167 | > 16.7 | < 0.00167 | > 16.7 | > 3.99 | < 0.00167 |
| O=c1c2c([nH]c3cc4c(cc13)OCO4)-c1ccccc1CC2 | – | > 100 | – | > 100 | – | > 100 | – | > 100 | – | > 100 | – | > 100 | – | – | – | > 100 | – | – | > 100 | – |
